In US8063064B2, “Non-nucleoside reverse transcriptase inhibitors” (Roche Palo Alto LLC, priority 2006, dated 2011):
Where a name gives a salt, the structure may show the parent alone.

Tested on: not given
Experiment: not given
Settings: not given

melting point [°C] | SMILES
206.5 to 209 | N#Cc1cc(Cl)cc(Oc2c(Br)ccc(Cc3n[nH]c4ncc(F)cc34)c2F)c1
192 to 194.4 | N#Cc1cc(Oc2c(Br)ccc(Cc3n[nH]c4ncccc34)c2F)cc(C(F)F)c1
234 to 236 | CS(=O)(=O)Nc1cccc2c(Cc3ccc(Br)c(Oc4cc(Cl)cc(C#N)c4)c3F)n[nH]c12
179.9 to 181.3 | N#Cc1cc(Cl)cc(Oc2c(Br)ccc(Cc3n[nH]c4c(N)cccc34)c2F)c1
138.6 to 142.6 | Cn1nc(Cc2ccc(Br)c(Oc3cc(Cl)cc(C#N)c3)c2F)c2cccnc21
237.6 to 240.8 | N#Cc1cc(Cl)cc(Oc2c(Br)ccc(Cc3n[nH]c4nnccc34)c2F)c1
148 to 150.1 | N#Cc1cc(Cl)cc(Oc2c(Cl)ccc(Cc3cc(-c4ccccc4)[nH]n3)c2F)c1
235.5 to 237.1 | CN1CCc2c(Cc3ccc(Br)c(Oc4cc(Cl)cc(C#N)c4)c3F)n[nH]c2C1=O
205 to 206.9 | CCc1ccc(Cc2n[nH]c3ncccc23)c(F)c1Oc1cc(Cl)cc(C#N)c1
200 to 202.9 | Cc1cc(C#N)cc(Oc2c(Cl)ccc(Cc3n[nH]c4nnccc34)c2F)c1
166 to 166.9 | N#Cc1cc(Oc2c(Br)ccc(Cc3n[nH]c4cnccc34)c2F)cc(C(F)F)c1
212.3 to 214 | N#Cc1cc(Cl)cc(Oc2c(Br)ccc(Cc3n[nH]c4nc(Cl)ccc34)c2F)c1
215 to 218.8 | Cc1ccc(Cc2n[nH]c3ncccc23)c(F)c1Oc1cc(Cl)cc(C#N)c1
216 to 218.5 | N#Cc1cc(Cl)cc(Oc2c(Br)ccc(Cc3n[nH]c4ccncc34)c2F)c1
197.9 to 201.9 | COc1ccc(Cc2n[nH]c3ncccc23)c(F)c1Oc1cc(C#N)cc(C(F)F)c1
212.5 to 214.4 | Cc1ccc(Cc2n[nH]c3ncccc23)c(F)c1Oc1cc(C#N)cc(C(F)F)c1
182 to 186.9 | N#Cc1cc(Cl)cc(Oc2c(Br)ccc(Cc3n[nH]c4cnccc34)c2F)c1
221 to 223.6 | N#Cc1cc(C#N)cc(Oc2c(C3CC3)ccc(Cc3n[nH]c4ncccc34)c2F)c1
215 to 216.8 | N#Cc1cc(Cl)cc(Oc2c(C3CC3)ccc(Cc3n[nH]c4ncccc34)c2F)c1
210 to 215.5 | N#Cc1cc(Cl)cc(Oc2c(Cl)ccc(Cc3n[nH]c4ncccc34)c2F)c1
177.5 to 178.2 | N#Cc1cc(Cl)cc(Oc2c(C(F)F)ccc(Cc3n[nH]c4nnccc34)c2F)c1
239.5 to 240.7 | CS(=O)(=O)c1ccc(Cc2n[nH]c3nnccc23)c(F)c1Oc1cc(Cl)cc(C#N)c1
222.8 to 224.7 | N#Cc1cc(C#N)cc(Oc2c(Cl)ccc(Cc3n[nH]c4nnccc34)c2F)c1
215 to 218 | N#Cc1cc(Cl)cc(Oc2c(Br)ccc(Cc3n[nH]c4ncncc34)c2F)c1
204 to 205 | N#Cc1cc(Cl)cc(Oc2c(Br)ccc(Cc3n[nH]c4nccnc34)c2F)c1
223.8 to 225 | COc1ccc2c(Cc3ccc(Br)c(Oc4cc(Cl)cc(C#N)c4)c3F)n[nH]c2n1
250 to 251.1 | N#Cc1cc(Cl)cc(Oc2c(Br)ccc(Cc3n[nH]c4c(C#N)cccc34)c2F)c1
214.2 to 216 | N#Cc1cc(Cl)cc(Oc2c(Br)ccc(Cc3n[nH]c4c([N+](=O)[O-])cccc34)c2F)c1

SMILES | melting point [°C]
N#Cc1cc(Oc2c(Cl)ccc(Cc3n[nH]c4ncccc34)c2F)cc(C(F)F)c1 [Compound I-28, 3-[6-Chloro-2-fluoro-3-(1H-pyrazolo[3,4-b]pyridin-3-ylmethyl)-phenoxy]-5-difluoromethyl-benzonitrile] | 198 to 199
N#Cc1cc(Cl)cc(Oc2c(Br)ccc(Cc3n[nH]c4nc(Cl)ncc34)c2F)c1 [Compound I-13, 3-[6-Bromo-3-(6-chloro-1H-pyrazolo[3,4-d]pyrimidin-3-ylmethyl)-2-fluoro-phenoxy]-5-chloro-benzonitrile] | 216 to 217.9
N#Cc1cc(Cl)cc(Oc2c(Br)ccc(Cc3n[nH]c4ncccc34)c2F)c1 [Compound I-7, 3-[6-Bromo-2-fluoro-3-(1H-pyrazolo[3,4-b]pyridin-3-ylmethyl)-phenoxy]-5-chloro-benzonitrile] | 242 to 243
N#Cc1cc(Oc2c(Br)ccc(Cc3cc(-c4ccccc4)[nH]n3)c2F)cc(C(F)F)c1 [Compound I-5, 3-[6-Bromo-2-fluoro-3-(5-phenyl-1H-pyrazol-3-ylmethyl)-phenoxy]-5-difluoromethyl-benzonitrile] | 78.3 to 90.1
N#Cc1cc(C#N)cc(Oc2c(Br)ccc(Cc3n[nH]c4ncccc34)c2F)c1 [Compound I-16, 5-[6-Bromo-2-fluoro-3-(1H-pyrazolo[3,4-b]pyridin-3-ylmethyl)-phenoxy]-isophthalonitrile] | 230 to 232.9
N#Cc1cc(Cl)cc(Oc2c(Cl)ccc(Cc3n[nH]c4ccccc34)c2F)c1 [Compound I-3, 3-Chloro-5-[6-chloro-2-fluoro-3-(1H-indazol-3-ylmethyl)-phenoxy]-benzonitrile] | 163.3 to 163.7

Target: T1, HIV-1 RT (Human immunodeficiency virus type 1 group M subtype B, UniProt P03366)
Experiment: Homopolymer HIV Reverse Transcriptase Assay: Inhibitor IC50 Determination
Format: biochemical
Settings: purified recombinant enzyme, poly(rA)/oligo(dT)16 template-primer, 5 nM HIV-1 RT, 37° C. 30 min; TABLE 3
Description: HIV-1 RT assay was carried out in 96-well Millipore filtermat NOB50 plates using purified recombinant enzyme and a poly(rA)/oligo(dT)16 template-primer in a total volume of 50 μL. The assay constituents were 50 mM Tris/HCl, 50 mM NaCl, 1 mM EDTA, 6 mM MgCl2, 5 μM dTTP, 0.1 μCi [^3H] dTTP, 5 μg/ml poly (rA) pre annealed to 2.5 μg/ml oligo (dT)16 and a range of inhibitor concentrations in a final concentration of 10% DMSO. Reactions were initiated by adding 5 nM HIV-1 RT and after incubation at 37° C. for 30 min, they were stopped by the addition of 50 μl ice cold 20% TCA and allowed to precipitate at 4° C. for 30 min. The precipitates were collected by applying vacuum to the plate and sequentially washing with 2×200 μl of 10% TCA and 2×200 μl 70% ethanol. Finally the plates were dried and radioactivity counted in a Wallac Microbeta 1450 after the addition of 15 μL scintillation fluid per well. IC50's (TABLE 3) were calculated by plotting % inhibition versus log10 inhibitor concentrations.

SMILES | IC50 [nM]
N#Cc1cc(Oc2c(Br)ccc(Cc3cc(-c4ccccc4)[nH]n3)c2F)cc(C(F)F)c1 [Compound I-5, 3-[6-Bromo-2-fluoro-3-(5-phenyl-1H-pyrazol-3-ylmethyl)-phenoxy]-5-difluoromethyl-benzonitrile] | 55
N#Cc1cc(Cl)cc(Oc2c(Cl)ccc(Cc3n[nH]c4ccccc34)c2F)c1 [Compound I-3, 3-Chloro-5-[6-chloro-2-fluoro-3-(1H-indazol-3-ylmethyl)-phenoxy]-benzonitrile] | 52

Target: T1, HIV-1 RT
Experiment: Heteropolymer HIV Reverse Transcriptase Assay: Inhibitor IC50 Determination
Format: biochemical
Settings: purified recombinant enzyme, poly(rA)/oligo(dT)16 template-primer, 4 nM HIV-1 RT, 37° C. 30 min; TABLE 2
Description: HIV-1 RT assay was carried out in 96-well Millipore MultiScreen MADVNOB50 plates using purified recombinant enzyme and a poly(rA)/oligo(dT)16 template-primer in a total volume of 50 μL. The assay constituents were 50 mM Tris/HCl, 50 mM NaCl, 1 mM EDTA, 6 mM MgCl2, 5 μM dTTP, 0.15 μCi [^3H] dTTP, 5 μg/ml poly (rA) pre annealed to 2.5 μg/ml oligo (dT)16 and a range of inhibitor concentrations in a final concentration of 10% DMSO. Reactions were initiated by adding 4 nM HIV-1 RT and after incubation at 37° C. for 30 min, they were stopped by the addition of 50 μl ice cold 20% TCA and allowed to precipitate at 4° C. for 30 min. The precipitates were collected by applying vacuum to the plate and sequentially washing with 3×200 μl of 10% TCA and 2×200 μl 70% ethanol. Finally, the plates were dried and radioactivity counted in a Packard TopCounter after the addition of 25 μl scintillation fluid per well. IC50's were calculated by plotting % inhibition versus log10 inhibitor concentrations.

SMILES | IC50 [nM]
N#Cc1cc(Oc2c(Br)ccc(Cc3n[nH]c4ccccc34)c2F)cc(C(F)F)c1 [Compound I-6, 3-[6-Bromo-2-fluoro-3-(1H-indazol-3-ylmethyl)-phenoxy]-5-difluoromethyl-benzonitrile] | 11.8
N#Cc1cc(Oc2c(Cl)ccc(Cc3n[nH]c4ncccc34)c2F)cc(C(F)F)c1 [Compound I-28, 3-[6-Chloro-2-fluoro-3-(1H-pyrazolo[3,4-b]pyridin-3-ylmethyl)-phenoxy]-5-difluoromethyl-benzonitrile] | 3.7
N#Cc1cc(Cl)cc(Oc2c(Br)ccc(Cc3n[nH]c4nc(Cl)ncc34)c2F)c1 [Compound I-13, 3-[6-Bromo-3-(6-chloro-1H-pyrazolo[3,4-d]pyrimidin-3-ylmethyl)-2-fluoro-phenoxy]-5-chloro-benzonitrile] | 8.6
N#Cc1cc(Cl)cc(Oc2c(Br)ccc(Cc3n[nH]c4ncccc34)c2F)c1 [Compound I-7, 3-[6-Bromo-2-fluoro-3-(1H-pyrazolo[3,4-b]pyridin-3-ylmethyl)-phenoxy]-5-chloro-benzonitrile] | 7.6
N#Cc1cc(Cl)cc(Oc2c(Cl)ccc(Cc3n[nH]c4nnccc34)c2F)c1 [Compound I-11, 3-Chloro-5-[6-chloro-2-fluoro-3-(1H-pyrazolo[3,4-c]pyridazin-3-ylmethyl)-phenoxy]-benzonitrile] | 1
N#Cc1cc(C#N)cc(Oc2c(Br)ccc(Cc3n[nH]c4ncccc34)c2F)c1 [Compound I-16, 5-[6-Bromo-2-fluoro-3-(1H-pyrazolo[3,4-b]pyridin-3-ylmethyl)-phenoxy]-isophthalonitrile] | 3.3
Cn1c(=O)ccc2c(Cc3ccc(Br)c(Oc4cc(Cl)cc(C#N)c4)c3F)n[nH]c21 [Compound I-48, 3-[6-Bromo-2-fluoro-3-(7-methyl-6-oxo-6,7-dihydro-1H-pyrazolo[3,4-b]pyridin-3-ylmethyl)-phenoxy]-5-chloro-benzonitrile, TFA salt] | 0.9
